Source: patent US9394290B2, “Selective CYP11B1 inhibitors for the treatment of cortisol dependent diseases” (UNIVERSITAET DES SAARLANDES CAMPUS SAARBRUECKEN, priority 2010, dated 2016)

What was measured:
human CYP11B1 = human CYP11B1 (Homo sapiens (Human), UniProt P15538); assay: Cellular assay for CYP11B1 inhibition (V79MZh11B1 hamster fibroblasts, substrate 11-deoxycorticosterone); settings: for IC50: read-out: IC50 value CYP11B1, Hamster fibroblasts expressing human CYP11B1, substrate 11-deoxycorticosterone, 100 nM, mean of at least three experiments; for sf: selectivity factor: IC50 (CYP11B2)/IC50 (CYP11B1): ratio IC50 (CYP11B2)/IC50 (CYP11B1)
Human placental CYP19 = Human placental CYP19 (Homo sapiens (Human), UniProt P11511); assay: CYP19 (aromatase) assay, human placental microsomes, 3H2O release; format: biochemical; settings: substrate androstenedione, 500 nM, inhibitor concentration 500 nM; for inhibition at 0.5 µM: read-out: inhibition (%) CYP 19
Protocol: The enzyme was obtained from the microsomal fraction of freshly delivered human term placental tissue according to the procedure of Thompson and Siiteri (Thompson, E. A.; Siiteri, P. K. J. Biol. Chem. 1974, 249, 5364).
The isolated microsomes were suspended in a minimum volume of phosphate buffer (0.05 M, pH 7.4, 20% glycerol). Additionally, DTT (dithiothreitol, 10 mM) and EDTA (1 mM) were added to protect the enzyme from degradation. The enzyme preparation was stored at −70° C.
The assay was performed monitoring enzyme activity by measuring the ^3H2O formed from [1β-^3H]androstenedione during aromatization (Hartmann et al. J. Med. Chem. 1986, 29, 1362-1369). […] The test compounds were dissolved in DMSO and diluted with buffer. The final DMSO concentration in the control and inhibitor incubation was 2%. Each tube was pre-incubated for 5 min at 30° C. in a water bath. Microsomal protein was added to start the reaction (0.1 mg). The total volume for each incubation was 0.25 ml. The reaction was terminated by the addition of 200 μl of a cold 1 mM HgCl2 solution. After addition of 200 μl of an aqueous dextran-coated charcoal (DCC) suspension (2%), the vials were shaken for 20 min and centrifuged at 1500×g for 5 min to separate the charcoal-absorbed steroids. The supernatant was assayed for ^3H2O by counting in a scintillation mixture using a β-counter. The calculation of the IC50 values was performed by plotting the percent inhibition vs. the concentration of inhibitor on a semi-log plot.
The above experiment was conducted at least three times and a mean value for the CYP19 inhibition calculated.

human CYP11B2 = human CYP11B2 (Homo sapiens (Human), UniProt P19099); assay: Cellular assay for CYP11B2 inhibition (V79MZh11B2 hamster fibroblasts, substrate 11-deoxycorticosterone); settings: for IC50: read-out: IC50 value CYP11B2, Hamster fibroblasts expressing human CYP11B2, 100 nM, mean of at least three experiments, n.i. = no inhibition at an inhibitor concentration of 500 nM
human CYP17 = human CYP17 (Homo sapiens (Human), UniProt P05093); assay: CYP17 inhibition assay (membrane fraction of E. coli expressing human CYP17, substrate progesterone); format: biochemical; settings: 25 μM, inhibitor concentration 2.0 μM; for inhibition at 2 µM: read-out: inhibition (%) CYP 17
Protocol: Recombinant E. coli pJL17/OR coexpressing human CYP17 and rat NADPH-P450-reductase were grown and stored as described by Ehmer et al. (J. Steroid Biochem. Mol. Biol., 2000, 75, 57-63)
For isolation of membrane fractions, 5 ml of bacterial suspension with an OD578 of 50 were washed using phosphate buffer (0.05 M, pH 7.4, 1 mM MgCl2, 0.1 mM EDTA and 0.1 mM dithiothreitol). Bacteria were harvested by centrifugation (2000×g) and the pellet was resuspended in 10 ml ice-cold TES buffer (0.1 M tris-acetate, pH 7.8, 0.5 mM EDTA, 0.5 M sucrose). Lysozyme was added with 10 ml of ice-cold water resulting in a concentration of 0.2 mg/ml followed by incubation for 30 min on ice with continuous shaking. Spheroplasts were harvested by centrifugation (12000×g, 10 min), and resuspended in 4 ml of ice-cold phosphate buffer (the same as described above plus 0.5 mM phenylmethylsulfonylfluoride (PMSF)).
After that spheroplasts were sonicated on ice (pulse 20 s on, 30 s off, five times), using a sonicator Sonopuls HD60 (Bandelin, Berlin, Germany) at maximum power. Unbroken cells and debris were pelleted at 3000×g for 7 min, and the supernatant was centrifuged at 50000×g for 20 min at 4° C. The membrane pellet was resuspended in 2 ml of phosphate buffer (the same as described above) with 20% glycerol using an ultra-turrax T25 (IKA-Labortechnik, Staufen, Germany). Protein concentration was determined by the method of Lowry.
The assay was performed as follows: a solution of 6.25 nmol progesterone (in 5 μl methanol) in 140 μl phosphate buffer (0.05 M, pH 7.4, 1 mM MgCl2, 0.1 mM EDTA and 0.1 mM dithiothreitol), 50 μl NADPH generating system (in phosphate buffer with 10 mM NADP, 100 mM glucose-6-phosphate and 2.5 units of glucose-6-phosphate-dehydrogenase) and inhibitor (in 5 μl DMSO) was pre-incubated at 37° C. for 5 min. Control cups were supplemented with 5 μl DMSO without inhibitor. The reaction was started by adding 50 μl of a 1:5 diluted membrane suspension in phosphate buffer (0.8-1.0 mg protein per ml). The maximum DMSO concentration in each sample was 2%. After mixing, incubation was performed for 30 min at 37° C. Subsequently the reaction was stopped with 50 μl 1 N HCl.
Extraction of the steroids was performed by addition of 1.0 ml ethyl acetate and vigorous shaking for 1 min. After a centrifugation step (5 min, 2500×g) the organic phase (0.9 ml) was transferred into a fresh cup containing 0.25 ml of incubation buffer and 50 μl 1 N HCl and mixed again. After centrifugation, 0.8 ml ethyl acetate solution was evaporated to dryness in a fresh cup. After that the steroids were redissolved in solvent for HPLC analysis (Hutschenreuter et. al. J. Enz. Inhib. Med. Chem. 2004, 19, 17-32).
The above experiment was conducted at least three times and a mean value for the CYP17 inhibition calculated.

human CYP11B2, sequence (P19099 25-503): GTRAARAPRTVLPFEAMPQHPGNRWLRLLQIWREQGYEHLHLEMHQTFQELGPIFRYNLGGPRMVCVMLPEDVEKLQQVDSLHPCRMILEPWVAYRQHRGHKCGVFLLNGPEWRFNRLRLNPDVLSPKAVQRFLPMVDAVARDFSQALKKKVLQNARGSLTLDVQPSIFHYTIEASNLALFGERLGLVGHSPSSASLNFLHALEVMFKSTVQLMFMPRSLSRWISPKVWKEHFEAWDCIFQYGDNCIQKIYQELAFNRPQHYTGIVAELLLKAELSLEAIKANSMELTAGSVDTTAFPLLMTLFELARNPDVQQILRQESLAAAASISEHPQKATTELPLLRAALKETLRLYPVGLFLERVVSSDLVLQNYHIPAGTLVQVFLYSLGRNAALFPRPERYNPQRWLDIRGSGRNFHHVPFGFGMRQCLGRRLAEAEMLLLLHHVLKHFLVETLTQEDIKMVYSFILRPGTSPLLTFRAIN
human CYP17, sequence (P05093 whole entry): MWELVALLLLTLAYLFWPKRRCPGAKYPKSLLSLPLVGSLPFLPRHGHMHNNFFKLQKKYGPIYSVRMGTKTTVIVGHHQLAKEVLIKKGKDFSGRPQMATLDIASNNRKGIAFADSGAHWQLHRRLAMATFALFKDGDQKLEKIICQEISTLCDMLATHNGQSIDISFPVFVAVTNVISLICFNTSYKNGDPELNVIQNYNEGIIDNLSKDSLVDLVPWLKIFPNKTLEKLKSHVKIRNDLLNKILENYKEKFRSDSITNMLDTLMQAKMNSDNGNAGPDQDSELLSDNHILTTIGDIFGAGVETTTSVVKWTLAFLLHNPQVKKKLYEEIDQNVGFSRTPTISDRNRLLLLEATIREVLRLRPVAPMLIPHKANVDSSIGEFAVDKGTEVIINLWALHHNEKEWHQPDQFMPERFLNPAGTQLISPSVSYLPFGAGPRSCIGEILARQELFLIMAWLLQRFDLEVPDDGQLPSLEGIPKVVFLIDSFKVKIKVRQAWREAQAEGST
human CYP11B1, sequence (P15538 25-503): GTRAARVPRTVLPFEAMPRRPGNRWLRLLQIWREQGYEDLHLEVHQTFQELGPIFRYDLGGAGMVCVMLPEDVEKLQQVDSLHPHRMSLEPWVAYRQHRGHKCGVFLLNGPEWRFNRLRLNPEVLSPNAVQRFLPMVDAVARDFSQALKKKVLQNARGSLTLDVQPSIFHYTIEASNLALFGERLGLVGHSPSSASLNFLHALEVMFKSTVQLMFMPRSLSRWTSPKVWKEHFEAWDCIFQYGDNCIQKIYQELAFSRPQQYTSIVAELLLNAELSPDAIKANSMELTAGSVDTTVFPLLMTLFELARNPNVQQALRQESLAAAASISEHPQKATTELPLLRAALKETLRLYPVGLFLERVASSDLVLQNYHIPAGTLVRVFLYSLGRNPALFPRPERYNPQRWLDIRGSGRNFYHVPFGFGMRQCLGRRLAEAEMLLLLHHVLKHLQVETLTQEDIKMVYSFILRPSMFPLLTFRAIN
Human placental CYP19, sequence (P11511 whole entry): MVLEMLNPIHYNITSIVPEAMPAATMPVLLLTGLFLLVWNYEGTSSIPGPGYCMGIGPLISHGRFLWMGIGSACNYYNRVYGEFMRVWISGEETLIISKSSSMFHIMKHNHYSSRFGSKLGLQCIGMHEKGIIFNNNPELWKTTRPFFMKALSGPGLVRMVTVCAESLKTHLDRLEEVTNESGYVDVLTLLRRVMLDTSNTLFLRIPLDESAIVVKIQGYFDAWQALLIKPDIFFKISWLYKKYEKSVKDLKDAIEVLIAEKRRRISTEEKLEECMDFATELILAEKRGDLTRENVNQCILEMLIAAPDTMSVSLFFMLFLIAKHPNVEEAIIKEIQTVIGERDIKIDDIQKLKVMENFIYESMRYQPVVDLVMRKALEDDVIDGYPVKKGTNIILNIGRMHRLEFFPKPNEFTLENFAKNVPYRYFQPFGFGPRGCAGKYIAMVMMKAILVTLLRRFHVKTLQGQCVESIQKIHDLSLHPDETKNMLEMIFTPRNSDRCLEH

IC50 (human CYP11B1)	inhibition at 0.5 µM (Human placental CYP19)	IC50 (human CYP11B2)	inhibition at 2 µM (human CYP17)	sf: selectivity factor: IC50 (CYP11B2)/IC50 (CYP11B1) (human CYP11B1)	IC50 value CYP11B2 (human CYP11B2; Hamster fibroblasts expressing human CYP11B2, 100 nM, mean of at least three experiments, n.i. = no inhibition at an inhibitor concentration of 500 nM)	inhibition (%) CYP 19 (Human placental CYP19)	inhibition (%) CYP 17 (human CYP17)	Structure (SMILES)
542 nM	0%	> 1000 nM	3%					Cc1ccc(-c2ccc(Cn3ccnc3)cn2)cc1N [Compound 18, 5-(5-Imidazol-1-ylmethyl-pyridin-2-yl)-2-methyl-phenylamine]
16 nM	19%	251 nM	0%	16				c1csc(-c2ncccc2Cn2ccnc2)c1 [Compound 36, 3-Imidazol-1-ylmethyl-2-thiophen-2-yl-pyridine]
611 nM	1%		2%		n.i.^d			c1ccc(N(c2ccccc2)c2ccc(-c3ccc(Cn4ccnc4)cn3)cc2)cc1 [Compound 22, [4-(5-Imidazol-1-ylmethyl-pyridin-2-yl)-phenyl]-diphenyl-amine]
362 nM	0%	851 nM	3%	2.4				c1ccc(-c2cc(Cn3ccnc3)cnc2-c2ccccc2)cc1 [Compound 25, 5-Imidazol-1-ylmethyl-2,3-diphenyl-pyridine]
72 nM	0%	1740 nM	3%	24				Fc1ccccc1-c1ccc(Cn2ccnc2)cn1 [Compound 7, 2-(2-Fluoro-phenyl)-5-imidazol-1-ylmethyl-pyridine]
101 nM	0%	2110 nM	6%	21				Nc1ccccc1-c1ccc(Cn2ccnc2)cn1 [Compound 15, 2-(5-Imidazol-1-ylmethyl-pyridin-2-yl)-phenylamine]
167 nM	4%	4390 nM	5%	26				COc1ccccc1-c1ccc(Cn2ccnc2)cn1 [Compound 12, 5-Imidazol-1-ylmethyl-2-(2-methoxy-phenyl)pyridine]
167 nM	0%	5160 nM	1%	31				c1coc(-c2ccc(Cn3ccnc3)cn2)c1 [Compound 39, 2-Furan-2-yl-5-imidazol-1-ylmethyl-pyridine]
75 nM	3%	1240 nM	8%	17				c1csc(-c2ccc(Cn3ccnc3)cn2)c1 [Compound 31, 5-Imidazol-1-ylmethyl-2-thiophen-2-yl-pyridine]
126 nM	0%	3260 nM	3%	26				c1cn(Cc2ccc(-c3ccsc3)nc2)cn1 [Compound 32, 5-Imidazol-1-ylmethyl-2-thiophen-3-yl-pyridine]
17 nM	0%	237 nM	2.6%	14				Oc1ccc(-c2ccc(Cn3ccnc3)cn2)cc1F [Compound 11, 2-Fluoro-4-(5-imidazol-1-ylmethyl-pyridin-2-yl)-phenol]
110 nM	2%	3410 nM	3%	31				Nc1cccc(-c2ccc(Cn3ccnc3)cn2)c1 [Compound 16, 3-(5-Imidazol-1-ylmethyl-pyridin-2-yl)-phenylamine]
106 nM	1%	528 nM	4%	5				Nc1ccc(-c2ccc(Cn3ccnc3)cn2)cc1 [Compound 17, 4-(5-Imidazol-1-ylmethyl-pyridin-2-yl)-phenylamine]
76 nM	0%	2830 nM	8%	37				c1cn(Cc2ccc(-c3ccoc3)nc2)cn1 [Compound 40, 2-Furan-3-yl-5-imidazol-1-ylmethyl-pyridine]
61 nM	2%	911 nM	3%	15				Brc1ncccc1Cn1ccnc1 [Compound 5, 2-Bromo-3-imidazol-1-ylmethyl-pyridine]
73 nM		416 nM		6		30%	5%	c1ccc(-c2cc(Cn3ccnc3)cnc2-c2ccccc2)cc1 [Compound 35, 5-Imidazol-1-ylmethyl-2,3-diphenyl-pyridine]
40 nM	0%	1160 nM	4%	29				c1ccc2c(-c3ccc(Cn4ccnc4)cn3)csc2c1 [Compound 38, 2-Benzo[b]thiophen-3-yl-5-imidazol-1-ylmethyl-pyridine]
